Calls of active or inactive are those of the source. No cut-off for these calls is given here.
Assays:
[1] = Metabolic stability in human liver microsomes assessed as intrinsic clearance at 1 uM incubated for 30 mins in presence of NADPH by LC-MS/MS analysis; assay type: ADME, Microsome; details: read-out: CLH
[2] = Lipophilicity, logD of compound in octanol and aqueous buffer at pH 7.4 incubated for 2 hrs by shake-flask method based LC-MS/MS analysis; assay type: physicochemical
[3] = Metabolic stability in rat hepatocytes assessed as intrinsic clearance measured per 10^6 cells at 1 uM incubated for 120 mins by LC-MS/MS analysis; assay type: ADME, cell-based, Hepatocyte; details: read-out: CLH
[4] = Intrinsic permeability in human Caco-2 cells at 10 uM; assay type: ADME, cell-based; details: read-out: permeability
[5] = target: Epidermal growth factor receptor (Homo sapiens, UniProt P00533, D770-N771INSNPG); assay: Inhibition of 6His-tagged TEV-GS fused EGFR D770_N771insNPG mutant (G696 to G1210 reisudes) (unknown origin) expressed in Sf21 cells using Poly(Glu,Tyr) peptide as substrate preincubated for 15 mins followed by substrate addition and measured after 30 mins in presence of ATP by ADP-Glo reagent based assay
Epidermal growth factor receptor (Homo sapiens, UniProt P00533, D770-N771INSNPG), sequence (P00533 whole entry, looked up, stated change not applied, the tested form may be a part): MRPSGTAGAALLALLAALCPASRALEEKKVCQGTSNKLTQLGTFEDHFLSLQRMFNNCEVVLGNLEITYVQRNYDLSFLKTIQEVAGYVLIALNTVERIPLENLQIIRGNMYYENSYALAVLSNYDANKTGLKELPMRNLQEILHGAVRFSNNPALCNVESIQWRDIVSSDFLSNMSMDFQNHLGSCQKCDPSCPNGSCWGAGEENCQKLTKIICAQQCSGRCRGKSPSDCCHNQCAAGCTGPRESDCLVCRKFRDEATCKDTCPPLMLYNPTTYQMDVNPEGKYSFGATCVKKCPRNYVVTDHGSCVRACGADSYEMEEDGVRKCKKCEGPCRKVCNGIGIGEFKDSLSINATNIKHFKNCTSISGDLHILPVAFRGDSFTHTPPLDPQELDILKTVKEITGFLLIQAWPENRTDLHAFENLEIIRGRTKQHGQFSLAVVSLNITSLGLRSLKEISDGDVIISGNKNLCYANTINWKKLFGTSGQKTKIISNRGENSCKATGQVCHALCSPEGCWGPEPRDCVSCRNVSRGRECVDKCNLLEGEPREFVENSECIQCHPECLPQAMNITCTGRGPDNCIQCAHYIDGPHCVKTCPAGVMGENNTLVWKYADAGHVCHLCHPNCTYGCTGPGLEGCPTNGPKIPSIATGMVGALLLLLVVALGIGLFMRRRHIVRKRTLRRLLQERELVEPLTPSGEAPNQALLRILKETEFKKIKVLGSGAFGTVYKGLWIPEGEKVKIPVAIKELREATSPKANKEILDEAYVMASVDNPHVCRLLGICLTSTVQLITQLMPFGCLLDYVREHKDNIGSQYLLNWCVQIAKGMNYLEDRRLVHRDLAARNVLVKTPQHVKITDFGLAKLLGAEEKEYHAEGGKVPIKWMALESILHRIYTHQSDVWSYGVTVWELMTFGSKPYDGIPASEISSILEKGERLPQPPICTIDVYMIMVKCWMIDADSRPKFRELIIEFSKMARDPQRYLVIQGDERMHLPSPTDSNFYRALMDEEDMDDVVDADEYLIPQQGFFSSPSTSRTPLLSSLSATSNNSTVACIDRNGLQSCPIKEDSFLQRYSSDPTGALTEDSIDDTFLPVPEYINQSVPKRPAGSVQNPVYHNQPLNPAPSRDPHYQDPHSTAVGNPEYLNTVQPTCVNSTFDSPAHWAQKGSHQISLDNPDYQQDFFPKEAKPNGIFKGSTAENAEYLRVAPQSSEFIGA

[6] = target: T1, Epidermal growth factor receptor (Homo sapiens, UniProt P00533, D770-N771INSSVD); assay: Inhibition of EGFR D770_N771insSVD mutant (unknown origin) phosphorylation transfected in human NCI-H2073 cells incubated for 2 hrs by HTRF assay; assay type: cell-based
T1 sequence (P00533 whole entry, looked up, stated change not applied): as the sequence (P00533 whole entry, looked up, stated change not applied, the tested form may be a part) above

[7] = target: T2, Epidermal growth factor receptor (Homo sapiens, UniProt P00533); assay: Inhibition of wildtype EGFR (unknown origin) phosphorylation transfected in human NCI-H2073 cells preincubated for 2 hrs followed by EGF stimulation for 10 mins by ELISA; assay type: cell-based
T2 sequence (P00533 whole entry, the tested form may be a part): as the sequence (P00533 whole entry, looked up, stated change not applied, the tested form may be a part) above

[8] = Selectivity ratio of IC50 for inhibition of recombinant wildtype human N-terminal GST-tagged EGFR cytoplasmic domain (669 to 1210 residues) expressed in Sf21 insect cells to IC50 for inhibition of 6His-tagged TEV-GS fused EGFR D770_N771insNPG mutant (G696 to G1210 reisudes) (unknown origin) expressed in Sf21 cells
[9] = target: T2, Epidermal growth factor receptor; assay: Inhibition of wildtype EGFR (unknown origin) phosphorylation transfected in human NCI-H2073 cells preincubated for 2 hrs followed by EGF stimulation for 10 mins by HTRF assay; assay type: cell-based
[10] = (§1) Selectivity ratio of IC50 for inhibition of wildtype EGFR (unknown origin) transfected in human NCI-H2073 cells preincubated for 2 hrs followed by EGF stimulation for 10 mins by HTRF assay to IC50 for inhibition of EGFR D770_N771insSVD mutant (unknown origin) transfected in human NCI-H2073 cells incubated for 2 hrs by HTRF assay; assay type: cell-based
[11] = as §1, with “ELISA” for “HTRF assay”; assay type: cell-based
[12] = target: T1, Epidermal growth factor receptor; assay: Inhibition of EGFR D770_N771insSVD mutant (unknown origin) phosphorylation transfected in human NCI-H2073 cells incubated for 2 hrs by ELISA; assay type: cell-based
[13] = Selectivity ratio of Ki/Kinact for inhibition of EGFR D770_N771insNPG mutant (unknown origin) using AQT0099 as substrate to Ki/Kinact for inhibition of wildtype EGFR (unknown origin) using AQT0099 as substrate
[14] = target: T2, Epidermal growth factor receptor; assay: Inhibition of recombinant wildtype human N-terminal GST-tagged EGFR cytoplasmic domain (669 to 1210 residues) expressed in Sf21 insect cells using Poly(Glu,Tyr) peptide as substrate preincubated for 15 mins followed by substrate addition and measured after 50 mins in presence of ATP by ADP-Glo reagent based assay
[15] = Metabolic stability in CD-1 mouse hepatocytes assessed as intrinsic clearance measured per 10^6 cells at 1 uM incubated for 120 mins by LC-MS/MS analysis; assay type: ADME, cell-based, Hepatocyte; details: read-out: CLH
[16] = Duration (time) of SCID mouse free plasma concentration cover over EGFR insSVD cell IC50 at 50 mg/kg, po; assay type: ADME, organism-based; details: in vivo
[17] = GSH reactivity of compound in phosphate buffer assessed as half-life at pH 7.4 at 1 uM by LC-MS/MS analysis; assay type: physicochemical; details: phosphate buffer with GSH
[18] = Drug metabolism in human liver microsomes assessed as O-dealkylation mediated fluoro-phenolic metabolite formation incubated for 60 mins by LC-MS/MS analysis; assay type: ADME, Microsome; details: 1 h
Mus musculus = assay: In vivo inhibition of EGFR phosphorylation in female SCID mouse xenografted with NCI-H2073 cells harboring EGFR D770_N771insSVD mutant at 100 mg/kg, po measured after 1 to 6 hrs by immunoblotting analysis; assay type: functional, organism-based; details: time 1-6 hrs
[19] = Antitumor activity against human NCI-H2073 cells harboring wildtype EGFR xenografted in female SCID mouse assessed as tumor growth inhibition at 100 mg/kg, po administered once daily for 15 days relative to control; assay type: functional; details: NCI-H2073, 360 h, time 15 day, read-out: TGI
[20] = Toxicity in female SCID mouse xenografted with human NCI-H2073 cells harboring EGFR D770_N771insSVD mutant assessed as body weight loss at 100 mg/kg, po administered once daily for 14 days; assay type: organism-based; details: in vivo, 336 h, time 14 day
[21] = Antitumor activity against human NCI-H2073 cells harboring EGFR D770_N771insSVD mutant xenografted in female SCID mouse assessed as tumor growth inhibition at 100 mg/kg, po administered once daily for 14 days relative to control; assay type: functional; details: NCI-H2073, 336 h, time 14 day, read-out: TGI
MDR1 = assay: Efflux ratio of apparent permeability across basolateral to apical side over apical to basolateral side in MDCKII-MDR1 cells at 1 uM incubated for 2 hrs by LC-MS/MS analysis; assay type: ADME, cell-based, Canis lupus familiaris; details: dog, MDCK-MDR1

Compound | microsomal CLint at 1 µM [1] | logD at 2 h [2] | hepatocyte CLint at 1 µM [3] | also measured
C=CC(=O)N1C[C@@H](n2cc(-c3ccncc3)c(-c3cccc(OCc4ccc5c(c4)CN(C)C5=O)c3)n2)C[C@@H]1C | > 300 µL/min/mg | 3 | – | –
Fc1ccccc1COc1cccc(-c2n[nH]cc2-c2ccncc2)c1 | 226 µL/min/mg | > 4.9 | – | –
C=CC(=O)Nc1cc(Nc2ncc(C(=O)OC(C)C)c(-c3cn(C)c4ccccc34)n2)c(OC)cc1N(C)CCN(C)C [MOBOCERTINIB] | – | – | – | IC50 [5]: < 3 nM; IC50 [6]: 34 nM; IC50 [7]: 30 nM; Ratio IC50 [8]: > 0.4; IC50 [9]: 37 nM; Ratio IC50 [10]: 1.1; Ratio IC50 [11]: 1.4; IC50 [12]: 22 nM; Selectivity ratio [13]: 0.63; IC50 [14]: 1 nM
C=CC(=O)N1CC[C@@H](n2cc(-c3ncnc4cc(OC)c(OC)cc34)c(-c3cccc(OC)c3)n2)C1 | 135 µL/min/mg | 2.4 | – | –
C=CC(=O)N1CC[C@H](n2cc(-c3ncnc4cc(OC)c(OC)cc34)c(-c3cccc(OC)c3)n2)C1 | 157 µL/min/mg | 2.4 | – | –
CN1Cc2cc(COc3cccc(-c4n[nH]cc4-c4ccncc4)c3)ccc2C1=O | 77 µL/min/mg | 3.1 | – | IC50 [5]: 150 nM; Ratio IC50 [8]: > 50; IC50 [14]: > 7400 nM
C=CC(=O)N1C[C@@H](n2cc(-c3ccncc3)c(-c3cc(COc4ccc5c(c4)CN(C)C5=O)ccc3F)n2)C[C@H]1C | > 300 µL/min/mg | 3.3 | 55 µL/min/1e6 cells | –
Fc1ccccc1COc1cccc(-c2n[nH]cc2-c2ccncn2)c1 | 117 µL/min/mg | 3.5 | – | –
C=CC(=O)Nc1ccc(OC)c(Nc2cc(-c3c[nH]nc3-c3cccc(OCc4ccc5c(c4)CN(C)C5=O)c3)ccn2)c1 | > 300 µL/min/mg | 3.9 | – | Papp at 10 µM [4]: 7.5 ×10⁻⁶ cm/s
C#CC(=O)NCCn1cc(-c2ncnc3cc(OC)c(OC)cc23)c(-c2cccc(OC)c2)n1 | 105 µL/min/mg | 2.1 | – | half-life at 1 µM [17]: 0.917 h
C=CS(=O)(=O)NCCn1cc(-c2ncnc3cc(OC)c(OC)cc23)c(-c2cccc(OC)c2)n1 | 192 µL/min/mg | 2.2 | – | half-life at 1 µM [17]: 1.15 h
C=CC(=O)N1CC(Oc2cc3c(-c4c[nH]nc4-c4cccc(OC)c4)ncnc3cc2OC)C1 | 33 µL/min/mg | 2 | – | –
C=CC(=O)Nc1ccc(OC)c(Nc2nccc(-c3c[nH]nc3-c3cccc(OC)c3)n2)c1 | 46 µL/min/mg | 4.1 | – | half-life at 1 µM [17]: 5.35 h; Papp at 10 µM [4]: 64 ×10⁻⁶ cm/s
C=CC(=O)N[C@H]1C=C(C)c2c(-c3cnc4ccccc4c3)c3c(N)ncnc3n2C1 [CLN-081] | – | – | – | IC50 [5]: < 3 nM; IC50 [6]: 21 nM; inhibition (Mus musculus): Active; IC50 [7]: 190 nM; inhibition in vivo at 100 mg/kg [19]: 63%; Activity [20]: < 10%; inhibition in vivo at 100 mg/kg [21]: 69%; IC50 [9]: 77 nM; Ratio IC50 [10]: 3.6; Ratio IC50 [11]: 3.4; IC50 [12]: 57 nM; Selectivity ratio [13]: 0.79; IC50 [14]: < 3 nM
C=CC(=O)NCCn1cc(-c2ncnc3cc(OC)c(OC)cc23)c(-c2cccc(OC)c2)n1 | 116 µL/min/mg | 2.4 | – | half-life at 1 µM [17]: 49.3 h
C=CC(=O)N1C[C@@H](n2cc(-c3ccncc3)c(-c3ccc(F)c(COc4ccc5c(c4)CN(C)C5=O)c3)n2)C[C@H]1C | > 300 µL/min/mg | 3.6 | 173 µL/min/1e6 cells | –
COc1cc2ncnc(-c3c[nH]nc3-c3cccc(OCc4ccc5c(c4)CN(C)C5=O)c3)c2cc1OC | > 300 µL/min/mg | – | – | –

Second part, led by results:

microsomal CLint at 1 µM [1] | logD at 2 h [2] | hepatocyte CLint at 1 µM [3] | Compound | also measured
166 µL/min/mg | 3.1 | 187 µL/min/1e6 cells | C=CC(=O)N1CC[C@H](n2cc(-c3ccncc3)c(-c3cccc(NC(=O)c4ncc(C5CC5)o4)c3)n2)C1 | Papp at 10 µM [4]: 30 ×10⁻⁶ cm/s
> 300 µL/min/mg | 2.7 | – | C=CC(=O)N1CC[C@H](n2cc(-c3ccncc3)c(-c3cc(OCc4ccc5c(c4)CN(C)C5=O)ccc3F)n2)C1 | –
202 µL/min/mg | 3.7 | 67 µL/min/1e6 cells | C=CC(=O)N1CC[C@H](n2cc(-c3ccncn3)c(-c3cccc(/C=C/c4ncc(C5CC5)o4)c3)n2)C1 | –
167 µL/min/mg | 3.5 | 62 µL/min/1e6 cells | C=CC(=O)N1CC[C@H](n2cc(-c3ccncc3)c(-c3cccc(/C=C/c4cc5n(n4)CCOC5)c3)n2)C1 | –
64 µL/min/mg | 2.5 | 38 µL/min/1e6 cells | C=CC(=O)N1CC[C@H](n2cc(-c3ccncc3)c(-c3cccc(NC(=O)c4cn(C5CC5)cn4)c3)n2)C1 | hepatocyte CLint at 1 µM [15]: 42 µL/min/1e6 cells; Time [16]: 1 h
58 µL/min/mg | 2.2 | 21 µL/min/1e6 cells | C=CC(=O)N1CC[C@H](n2cc(-c3ccncc3)c(-c3cccc(NC(=O)c4ccc5c(c4)CN(C)C5=O)c3)n2)C1 | Papp at 10 µM [4]: < 0.36 ×10⁻⁶ cm/s
19 µL/min/mg | 2.2 | 58 µL/min/1e6 cells | C=CC(=O)N1CC(n2cc(-c3ccncc3)c(-c3cccc(NC(=O)c4cn(C5CC5)cn4)c3)n2)C1 | hepatocyte CLint at 1 µM [15]: 150 µL/min/1e6 cells
> 300 µL/min/mg | 3.2 | – | C=CC(=O)N1C[C@@H](n2cc(-c3ccncc3)c(-c3cccc(OCc4ccc5c(c4)CN(C)C5=O)c3)n2)C[C@H]1C | –
> 300 µL/min/mg | 3.4 | 58 µL/min/1e6 cells | C=CC(=O)N1C[C@@H](n2cc(-c3ccncc3)c(-c3cccc(COc4ccc5c(c4)CN(C)C5=O)c3)n2)C[C@H]1C | hepatocyte CLint at 1 µM [15]: 30 µL/min/1e6 cells; Time [16]: 3 h
175 µL/min/mg | 2.9 | 51 µL/min/1e6 cells | C=CC(=O)N1CC[C@H](n2cc(-c3ccncc3)c(-c3cccc(NC(=O)c4cccc(OC)c4F)c3)n2)C1 | Papp at 10 µM [4]: 42 ×10⁻⁶ cm/s
> 300 µL/min/mg | 2.9 | – | C=CC(=O)N1CC[C@H](n2cc(-c3ccncc3)c(-c3ccc(F)c(OCc4ccc5c(c4)CN(C)C5=O)c3)n2)C1 | Drug metabolism [18]: Metabolite_Detected
> 264 µL/min/mg | 2.6 | – | C=CC(=O)N1CC[C@H](n2cc(-c3ccncc3)c(-c3cccc(OCc4ccc5c(c4)CN(C)C5=O)c3)n2)C1 | hepatocyte CLint at 1 µM [15]: 64 µL/min/1e6 cells
> 300 µL/min/mg | 3 | 128 µL/min/1e6 cells | C=CC(=O)N1CC[C@H](n2cc(-c3ccncc3)c(-c3cccc(COc4ccc5c(c4)CN(C)C5=O)c3)n2)C1 | –
51 µL/min/mg | 4.4 | 48 µL/min/1e6 cells | C=CC(=O)N1CC(n2cc(-c3ccncc3)c(-c3cccc(/C=C/c4ncc(C5CC5)o4)c3)n2)C1 | hepatocyte CLint at 1 µM [15]: 64 µL/min/1e6 cells
> 300 µL/min/mg | 3.3 | – | C=CC(=O)N1CC[C@H](n2cc(-c3ccncc3)c(-c3cc(F)cc(OCc4ccc5c(c4)CN(C)C5=O)c3)n2)C1 | IC50 [6]: 540 nM; IC50 [9]: > 28000 nM; Ratio IC50 [10]: > 52
200 µL/min/mg | 3.9 | 28 µL/min/1e6 cells | C=CC(=O)N1CC[C@H](n2cc(-c3ccncc3)c(-c3cccc(/C=C/c4ccc5c(c4)CN(C)C5=O)c3)n2)C1 | IC50 [6]: 220 nM; hepatocyte CLint at 1 µM [15]: 29 µL/min/1e6 cells; IC50 [9]: > 16000 nM; efflux ratio at 2 h, 1 µM (MDR1): 29; Ratio IC50 [10]: > 73; Time [16]: 0 h

Source: ChEMBL document CHEMBL5506057, “Discovery and Optimization of Potent, Efficacious and Selective Inhibitors Targeting EGFR Exon20 Insertion Mutations” (J Med Chem, 2024)
